Assays:
[1] = molecular target: EGFR(L858R) (Homo sapiens, UniProt P00533, L858R); test: biochemical; conditions: read-out: Percent control
[2] = molecular target: T1, EGFR(L861Q) (Homo sapiens, UniProt P00533, L861Q); test: biochemical; conditions: read-out: Percent control
[3] = molecular target: EGFR(T790M) (Homo sapiens, UniProt P00533, T790M); test: biochemical; conditions: read-out: Percent control
[4] = molecular target: T1, EGFR(L861Q); conditions: 10 μM
[5] = molecular target: T2, ABCG2 (MDCKII–ABCG2) (Homo sapiens, UniProt Q9UNQ0); test: Bidirectional drug transport assay; assay type: in vitro ADME; conditions: 10 μM, mean of three experiments
T2 construct: expressed in transfected cells; host or cells: MDCKII-ABCG2

[6] = test system: HCC827; test: Anticancer activity (cytotoxicity) in NSCLC cell line; assay type: cell-based; conditions: Homo sapiens, HCC827, EGFR ΔE746-A750 (sensitizing)
[7] = molecular target: ABL2 (Homo sapiens, UniProt P42684); test: biochemical; conditions: read-out: Percent control
[8] = molecular target: T3, AXL (Homo sapiens, UniProt P30530); test: biochemical; conditions: read-out: Percent control
T3 sequence (P30530 26-894): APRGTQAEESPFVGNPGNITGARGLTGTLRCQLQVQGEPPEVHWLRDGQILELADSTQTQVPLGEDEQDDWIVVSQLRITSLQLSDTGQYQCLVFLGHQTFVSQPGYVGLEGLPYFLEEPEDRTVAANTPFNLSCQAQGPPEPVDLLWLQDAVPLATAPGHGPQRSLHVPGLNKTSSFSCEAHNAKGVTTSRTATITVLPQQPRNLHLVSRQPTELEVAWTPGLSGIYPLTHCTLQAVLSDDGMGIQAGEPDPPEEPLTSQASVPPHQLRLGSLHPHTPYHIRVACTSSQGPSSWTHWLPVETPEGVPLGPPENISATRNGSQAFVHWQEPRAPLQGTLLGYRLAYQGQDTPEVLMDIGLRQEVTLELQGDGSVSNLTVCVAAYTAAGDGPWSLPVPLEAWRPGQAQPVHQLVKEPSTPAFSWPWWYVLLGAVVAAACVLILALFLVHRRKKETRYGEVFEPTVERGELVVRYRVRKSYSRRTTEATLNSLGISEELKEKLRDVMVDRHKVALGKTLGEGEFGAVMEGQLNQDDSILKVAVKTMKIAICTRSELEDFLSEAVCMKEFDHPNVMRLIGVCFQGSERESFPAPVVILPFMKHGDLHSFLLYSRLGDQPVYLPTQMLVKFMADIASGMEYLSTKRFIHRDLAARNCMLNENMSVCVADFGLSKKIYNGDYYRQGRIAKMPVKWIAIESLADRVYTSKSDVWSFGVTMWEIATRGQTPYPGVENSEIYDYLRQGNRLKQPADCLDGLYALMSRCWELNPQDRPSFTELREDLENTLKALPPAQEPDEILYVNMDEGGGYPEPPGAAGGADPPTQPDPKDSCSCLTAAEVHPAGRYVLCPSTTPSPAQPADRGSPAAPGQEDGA

[9] = molecular target: T4, ABCG2 (Homo sapiens, UniProt Q9UNQ0); test: Bidirectional drug transport assay; assay type: in vitro ADME; conditions: dog, pH 7.4, MDCKII–ABCG2, mean of three experiments
T4 construct: expressed in transfected cells; host or cells: MDCKII-ABCG2

[10] = molecular target: ABL1(E255K)-phosphorylated (Homo sapiens, UniProt P00519, E255K); test: biochemical; conditions: read-out: Percent control
[11] = molecular target: ABL1(F317I)-phosphorylated (Homo sapiens, UniProt P00519, F317I); test: biochemical; conditions: read-out: Percent control
[12] = molecular target: ABL1(M351T)-phosphorylated (Homo sapiens, UniProt P00519, M351T); test: biochemical; conditions: read-out: Percent control

T1 sequence (P00533 25-1210 L861Q): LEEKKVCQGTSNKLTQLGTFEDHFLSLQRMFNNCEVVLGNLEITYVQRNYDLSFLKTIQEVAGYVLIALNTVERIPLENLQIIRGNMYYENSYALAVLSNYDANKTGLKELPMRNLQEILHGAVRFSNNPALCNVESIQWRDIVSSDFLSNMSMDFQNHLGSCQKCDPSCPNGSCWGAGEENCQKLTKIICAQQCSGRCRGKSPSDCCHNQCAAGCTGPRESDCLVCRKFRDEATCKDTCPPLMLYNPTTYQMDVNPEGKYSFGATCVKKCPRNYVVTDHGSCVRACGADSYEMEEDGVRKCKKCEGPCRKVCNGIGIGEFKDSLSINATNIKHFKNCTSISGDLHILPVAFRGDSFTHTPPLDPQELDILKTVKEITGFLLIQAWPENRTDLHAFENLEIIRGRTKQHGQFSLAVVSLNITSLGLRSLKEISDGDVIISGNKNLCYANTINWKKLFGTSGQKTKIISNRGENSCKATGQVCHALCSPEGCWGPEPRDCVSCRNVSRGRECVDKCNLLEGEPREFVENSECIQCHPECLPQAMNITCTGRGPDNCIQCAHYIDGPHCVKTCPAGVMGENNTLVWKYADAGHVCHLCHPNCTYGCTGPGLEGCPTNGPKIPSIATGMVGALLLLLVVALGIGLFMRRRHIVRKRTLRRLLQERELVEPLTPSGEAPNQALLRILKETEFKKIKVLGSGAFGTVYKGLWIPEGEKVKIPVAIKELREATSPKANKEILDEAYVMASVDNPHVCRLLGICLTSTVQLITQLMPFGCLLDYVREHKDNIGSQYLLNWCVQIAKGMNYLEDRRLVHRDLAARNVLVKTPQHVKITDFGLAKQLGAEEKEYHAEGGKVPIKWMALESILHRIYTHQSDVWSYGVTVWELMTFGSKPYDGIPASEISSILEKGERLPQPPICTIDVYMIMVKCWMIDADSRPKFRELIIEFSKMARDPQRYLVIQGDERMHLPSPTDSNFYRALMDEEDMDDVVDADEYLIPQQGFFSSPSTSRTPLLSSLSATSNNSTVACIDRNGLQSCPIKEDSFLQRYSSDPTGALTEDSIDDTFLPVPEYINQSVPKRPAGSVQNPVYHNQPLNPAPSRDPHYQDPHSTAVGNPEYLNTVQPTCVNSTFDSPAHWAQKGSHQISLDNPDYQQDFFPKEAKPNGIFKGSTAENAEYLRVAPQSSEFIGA
T2 sequence (Q9UNQ0 whole entry, species assumed): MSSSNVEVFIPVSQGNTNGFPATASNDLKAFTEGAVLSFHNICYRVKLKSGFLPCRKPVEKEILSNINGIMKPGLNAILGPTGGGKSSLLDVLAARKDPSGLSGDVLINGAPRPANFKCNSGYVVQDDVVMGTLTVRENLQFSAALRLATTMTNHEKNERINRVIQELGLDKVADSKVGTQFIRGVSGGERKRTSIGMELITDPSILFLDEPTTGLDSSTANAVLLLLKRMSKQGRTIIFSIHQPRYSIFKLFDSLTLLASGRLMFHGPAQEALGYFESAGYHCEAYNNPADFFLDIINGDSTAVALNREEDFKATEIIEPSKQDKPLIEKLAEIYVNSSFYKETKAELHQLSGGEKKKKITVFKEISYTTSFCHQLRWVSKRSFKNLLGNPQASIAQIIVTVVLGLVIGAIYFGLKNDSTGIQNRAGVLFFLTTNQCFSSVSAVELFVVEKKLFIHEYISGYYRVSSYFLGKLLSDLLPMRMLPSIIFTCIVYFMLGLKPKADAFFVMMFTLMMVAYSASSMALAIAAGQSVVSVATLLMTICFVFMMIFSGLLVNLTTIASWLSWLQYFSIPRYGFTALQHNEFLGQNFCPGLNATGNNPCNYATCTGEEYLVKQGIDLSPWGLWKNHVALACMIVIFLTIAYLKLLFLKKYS
T4 sequence (Q9UNQ0 whole entry, species assumed): as above
Chain of EGFR(T790M) (P00533 25-1210 T790M): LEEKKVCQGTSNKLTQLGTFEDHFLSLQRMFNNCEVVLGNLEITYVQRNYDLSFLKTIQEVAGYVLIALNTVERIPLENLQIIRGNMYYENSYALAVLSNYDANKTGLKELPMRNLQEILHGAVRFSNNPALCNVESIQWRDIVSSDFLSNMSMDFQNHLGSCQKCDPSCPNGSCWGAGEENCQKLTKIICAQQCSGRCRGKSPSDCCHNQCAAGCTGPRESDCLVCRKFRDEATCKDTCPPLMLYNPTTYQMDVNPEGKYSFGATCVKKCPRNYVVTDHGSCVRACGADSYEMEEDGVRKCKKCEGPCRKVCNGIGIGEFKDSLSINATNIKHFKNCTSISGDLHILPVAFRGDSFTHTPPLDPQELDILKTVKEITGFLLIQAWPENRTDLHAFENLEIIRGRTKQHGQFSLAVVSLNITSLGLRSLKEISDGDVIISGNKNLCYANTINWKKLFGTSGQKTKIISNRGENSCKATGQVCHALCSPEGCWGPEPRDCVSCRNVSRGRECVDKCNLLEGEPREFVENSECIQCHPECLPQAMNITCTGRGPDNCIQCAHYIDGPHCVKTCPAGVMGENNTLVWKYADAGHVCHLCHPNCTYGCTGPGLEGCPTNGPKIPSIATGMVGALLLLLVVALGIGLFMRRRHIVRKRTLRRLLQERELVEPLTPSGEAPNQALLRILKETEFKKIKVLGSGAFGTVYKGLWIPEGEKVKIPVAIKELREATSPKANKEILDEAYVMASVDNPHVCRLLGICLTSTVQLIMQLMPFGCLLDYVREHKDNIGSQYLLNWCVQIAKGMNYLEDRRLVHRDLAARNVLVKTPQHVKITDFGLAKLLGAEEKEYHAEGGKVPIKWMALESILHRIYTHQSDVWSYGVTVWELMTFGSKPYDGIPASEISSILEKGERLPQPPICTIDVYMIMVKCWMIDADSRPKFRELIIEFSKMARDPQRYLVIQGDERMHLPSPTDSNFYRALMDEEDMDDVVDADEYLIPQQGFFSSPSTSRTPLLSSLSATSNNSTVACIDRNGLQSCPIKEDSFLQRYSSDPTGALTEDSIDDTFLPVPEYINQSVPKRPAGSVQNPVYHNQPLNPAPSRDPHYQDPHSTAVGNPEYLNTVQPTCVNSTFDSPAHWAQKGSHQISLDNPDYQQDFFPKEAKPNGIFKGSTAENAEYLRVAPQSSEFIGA
Chain of EGFR(L858R) (P00533 25-1210 L858R): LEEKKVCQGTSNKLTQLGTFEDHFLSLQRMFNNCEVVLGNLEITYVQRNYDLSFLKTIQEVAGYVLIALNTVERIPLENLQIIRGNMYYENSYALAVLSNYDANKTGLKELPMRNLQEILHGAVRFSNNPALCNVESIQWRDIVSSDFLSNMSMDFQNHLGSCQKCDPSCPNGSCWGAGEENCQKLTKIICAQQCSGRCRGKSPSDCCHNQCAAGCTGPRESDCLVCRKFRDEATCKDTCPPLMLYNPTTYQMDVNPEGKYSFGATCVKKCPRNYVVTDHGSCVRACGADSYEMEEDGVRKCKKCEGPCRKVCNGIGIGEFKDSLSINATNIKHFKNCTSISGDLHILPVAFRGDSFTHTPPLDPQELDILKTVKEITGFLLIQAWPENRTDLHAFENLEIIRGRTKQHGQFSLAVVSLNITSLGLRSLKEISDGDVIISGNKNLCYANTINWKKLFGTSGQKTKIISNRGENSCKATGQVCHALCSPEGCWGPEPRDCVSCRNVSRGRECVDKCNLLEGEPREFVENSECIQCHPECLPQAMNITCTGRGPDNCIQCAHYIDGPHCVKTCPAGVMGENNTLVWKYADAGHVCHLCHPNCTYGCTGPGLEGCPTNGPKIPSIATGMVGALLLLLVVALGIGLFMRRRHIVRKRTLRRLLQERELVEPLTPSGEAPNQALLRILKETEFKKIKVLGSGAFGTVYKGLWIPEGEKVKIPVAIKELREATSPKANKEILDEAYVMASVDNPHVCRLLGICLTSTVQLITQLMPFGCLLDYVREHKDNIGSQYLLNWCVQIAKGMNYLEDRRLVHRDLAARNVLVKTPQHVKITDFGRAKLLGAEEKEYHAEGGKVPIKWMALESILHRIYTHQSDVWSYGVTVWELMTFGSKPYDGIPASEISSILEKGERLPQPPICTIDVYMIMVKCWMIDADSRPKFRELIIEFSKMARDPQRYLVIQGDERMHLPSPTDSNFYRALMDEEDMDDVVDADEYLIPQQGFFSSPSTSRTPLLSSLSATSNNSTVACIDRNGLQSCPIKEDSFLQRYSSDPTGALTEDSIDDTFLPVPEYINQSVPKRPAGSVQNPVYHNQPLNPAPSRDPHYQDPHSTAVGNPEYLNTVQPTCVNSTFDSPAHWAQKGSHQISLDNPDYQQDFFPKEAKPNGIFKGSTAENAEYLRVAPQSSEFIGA

Cc1ccc(NC(=O)c2ccc(CN3CCN(C)CC3)cc2)cc1Nc1nccc(-c2cccnc2)n1 [Imatinib, reference compound]
remaining activity at 10 µM [1]: 100% | remaining activity at 10 µM [2]: 100% | remaining activity at 10 µM [3]: 100%

Cc1ccc(NC(=O)c2ccc(CN3CCN(C)CC3)cc2)cc1Nc1nccc(-c2cccnc2)[n+]1[Pt-2]1([Cl])[NH2+]C2CCCCC2[NH2+]1 (centres unmarked) [1b, oxaliplatin-imatinib]
Percent control [4]: 42%

C#Cc1cccc(Nc2c3cc(OCCOC)c(OCCOC)cc3nc[n+]2[Pt@SP2-2]([NH3+])([NH3+])[Cl])c1 [2a, cisplatin-erlotinib]
A to B transport (apparent permeability) [5]: 7.21 × 10^−6 | B to A transport (apparent permeability) [5]: 7.88 × 10^−6

COc1cc2c(Nc3ccc(Br)cc3F)ncnc2cc1OCC1CCN(C)CC1 [Vandetanib, reference compound]
IC50 [6]: 11 ± 2 nM | remaining activity at 10 µM [7]: 0.7% | remaining activity at 10 µM [8]: 2.4%

C#Cc1cccc(Nc2ncnc3cc(OCCOC)c(OCCOC)cc23)c1 [Erlotinib]
Papp A→B at 120 min, 10 μM ([9]; read-out: A to B transport (apparent permeability)): 14.9 ×10⁻⁶ cm/s | Papp B→A at 120 min, 10 μM ([9]; read-out: B to A transport (apparent permeability)): 45.4 ×10⁻⁶ cm/s | remaining activity at 10 µM [10]: 0.6% | remaining activity at 10 µM [11]: 9.9% | remaining activity at 10 µM [12]: 0.7%
